Experimental data reported in patent US20100184851A1, “INHIBITION OF CELL PROLIFERATION” (priority 2008, published 2010).
Where a name gives a salt, the structure may show the parent alone. Read-outs that look alike come from different tables or passages of the source.

Key:
Rb:Raf-1 binding = molecular target: T1, Rb:Raf-1 binding (Homo sapiens, UniProt P06400); test: GST-Rb/GST-Raf-1 ELISA, inhibition of Rb:Raf-1 binding
T1 construct: a glutathione S-transferase (GST) Raf-1 (1-149aa) overnight at 4° C; made in house
T1 sequence (P06400 1-928): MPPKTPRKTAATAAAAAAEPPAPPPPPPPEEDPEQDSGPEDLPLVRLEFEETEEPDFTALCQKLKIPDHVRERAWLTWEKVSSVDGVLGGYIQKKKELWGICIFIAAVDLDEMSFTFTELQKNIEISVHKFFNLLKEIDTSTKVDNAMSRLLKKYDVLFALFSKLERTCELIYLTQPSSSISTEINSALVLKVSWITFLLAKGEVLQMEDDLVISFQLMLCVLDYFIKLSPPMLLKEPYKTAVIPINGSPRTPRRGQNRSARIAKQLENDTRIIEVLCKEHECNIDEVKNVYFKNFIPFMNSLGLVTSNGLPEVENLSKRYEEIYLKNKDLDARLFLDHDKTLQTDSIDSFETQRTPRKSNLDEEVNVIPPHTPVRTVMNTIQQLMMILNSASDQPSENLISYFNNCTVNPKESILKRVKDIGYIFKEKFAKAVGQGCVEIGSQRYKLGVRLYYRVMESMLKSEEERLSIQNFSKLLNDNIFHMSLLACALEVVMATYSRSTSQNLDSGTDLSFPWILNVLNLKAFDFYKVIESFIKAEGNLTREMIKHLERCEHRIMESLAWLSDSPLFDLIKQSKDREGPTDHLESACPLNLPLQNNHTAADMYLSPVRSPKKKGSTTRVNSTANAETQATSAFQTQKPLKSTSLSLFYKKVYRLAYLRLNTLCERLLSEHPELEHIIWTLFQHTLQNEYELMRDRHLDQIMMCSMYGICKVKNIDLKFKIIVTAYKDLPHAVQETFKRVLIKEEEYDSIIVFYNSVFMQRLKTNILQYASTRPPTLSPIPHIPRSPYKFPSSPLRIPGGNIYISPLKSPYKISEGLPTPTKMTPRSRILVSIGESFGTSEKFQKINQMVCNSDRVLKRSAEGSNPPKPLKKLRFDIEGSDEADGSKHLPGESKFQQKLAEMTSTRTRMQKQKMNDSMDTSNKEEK
Experimental: Cell culture and transfection. The human promyelocytic leukemia cell line U937 was cultured in RPMI (Mediatech, Hernden, Va.) containing 10% fetal bovine serum (FBS; Mediatech). U2-OS, Saos-2, MCF7, PANC1 and MDA-MB-231 cell lines were cultured in Dulbecco modified Eagle Medium (DMEM; Mediatech) containing 10% FBS. A549 cells and A549 shRNA Rb cell lines were maintained in Ham F-12K supplemented with 10% FBS. ShRNA cells lines were maintained in media containing 0.5 μg/mL puromycin. H1650, PC-9 and Aspc1 cell line were cultured in RPMI (Gibco/Invitrogen, Carlsbad, Calif.) containing 10% FBS. PANC1 and CAPAN2 pancreatic cell lines and the A375 Melanoma cell line was grown in DMEM supplemented with 10% FBS. Human aortic endothelial cells (HAECs, Clonetics, San Diego, Calif.) were cultured in endothelial growth medium, supplemented with 5% FBS, according to the manufacturer's instructions. U251MG and U87MG glioma cell lines were maintained in DMEM supplemented with non-essential amino acids, […] β-mercaptoethanol, and 10% FBS. ShRNA cell lines were made by stably transfecting A549 cells with two different shRNA constructs that specifically target Rb obtained from a library. The adenovirus (Ad) constructs Ad-green fluorescent protein (GFP) and Ad-E2F1 were obtained from W. D. Cress. Ad-cyclin D was provided by I. Cozar-Castellano. In vitro library screening assays. Enzyme Linked ImmunoSorbent Assay (ELISA) 96-well plates were coated with 1 μg/mL of a glutathione S-transferase (GST) Raf-1 (1-149aa) overnight at 4° C. […] GST-Rb +/− compounds were then added to the plate and incubated for 90 minutes (min) at 37° C. The amount of Rb bound to Raf-1 was detected by Rb polyclonal antibody (Santa Cruz Biotechnology, Santa Cruz, Calif.) 1:1000 incubated for 60 min at 37° C. Donkey-anti-rabbit-IgG-HRP (1:10,000) was added to the plate and incubated at 37° C. for 60 minutes. The color was developed with orthophenylenediamine (Sigma, St. Louis, Mo.) and the reaction was terminated with 3 molar (M) H2SO4. Absorbance was read at 490 nanometers (nm). To determine disruption of Rb to E2F1, Phb, or HDAC1 the above protocol was used with the exception of coating GST Rb on the ELISA plate and adding the drugs in the presence or absence of GST E2F1, Phb, or HDAC1. E2F1 monoclonal antibody (1:2000) was used to detect the amount of Rb bound to E2F1. Prohibition monoclonal antibody was used at 1:1000 to detect the amount of Rb bound to Prohibition. For disruption of MEK-Raf-1 binding ELISAs, Raf-1 1 microgram/milliliter (μg/mL) was coated on the plate and GST-MEK (20 μg/mL) was incubated +/− the compounds for 30 minutes at room temperature. Mek1 polyclonal antibody was used at 1:1000 to detect the binding of Raf-1 to Mek1. The IC50 concentrations for the Rb:Raf-1 inhibitors were determined by plotting with Origin 7.5 software (Origin, Northampton, Mass.). In vitro binding assays. Glutathione S-transferase (GST) fusion of Rb, Raf-1, E2F1, and MEK1 have been previously described (Dasgupta P, Sun J, Wang S, et al. Mol Cell Biol 2004; 24(21):9527-9541). First, 200 micrograms (pig) of U937 asynchronous lysates were pre-incubated with 10 μM of the indicated drugs or 1 μM of the Raf-1 peptide for 30 minutes at 4° C. Next, 200 μg of the U937 lysates were incubated with glutathione beads carrying an equal amount of the GST fusion proteins in 200 μl of protein binding buffer (20 mM Tris [pH 7.5], 50 mM KCL, 0.5 mM EDTA, 1 mM dithiothreitol, 0.5% NP-40, 3 mg of bovine serum albumin/mL) at 4° C. for 2 h. (Wang S, Ghosh R, Chellappan S. Mol Cell Biol 1998; 18(12):7487-7498). Matrigel Assays. Matrigel (Collaborative Biomedical Products) was used to promote the differentiation of HAECs into capillary tube-like structures (Dasgupta P, Sun J, Wang S, et al. Mol Cell Biol 2004; 24(21):9527-9541). A total of 100 μl of thawed Matrigel was added to 96-well tissue culture plates, followed by incubation at 37° C. for 60 minutes to allow polymerization. […]

[1] = tested on: A549 cells lacking Raf-1 (sh-13B); test: BrdU incorporation, A549 cells lacking Raf-1; type: cell-based, human; conditions: 20 μM
Experimental: A549 cells lacking Raf-1 (sh-13B) were generated by stably transfecting a shRNA to Raf-1. Control cells were generated by stably transfecting A549 cells with a control shRNA. The cells were incubated in the presence or absence of compounds 3a, 10b and 10c (20 μM) and S-phase entry was assessed by measuring BrdU incorporation. Relative to controls incubated in the absence of compound, proliferation of the cells with control shRNA (having Raf-1) was inhibited by each of the compounds. In contrast, proliferation of the cells lacking Raf-1 (the cells transfected with Raf-inhibitory shRNA) was not inhibited by the compound. This experiment provides evidence that inhibition of cell proliferation by compounds of the invention is mediated by Raf-1 […].

[2] = read-out: inhibition of the Rb:Raf-1 interaction
[3] = class symbols, 10 μM, read-out: % Inhibition at 10 or 20 μM
[4] = class symbol **, 20 μM, read-out: Inhibition at 10 μM or 20 μM
[5] = at 20 μM, read-out: Inhibition at 10 μM or 20 μM
[6] = first value of cell, concentration not printed (head: 10 μM), read-out: Inhibition at 10 μM or 20 μM

Work on `N=C(N)SCc1ccc(Cl)cc1Cl` [Compound 1, reference compound] yielded an inhibition at 20 µM (Rb:Raf-1 binding; [2]) of 100%.

Work on `N=C(N)SCc1ccc(Cl)c2ccccc12` [Compound 2, reference compound] yielded an inhibition at 20 µM (Rb:Raf-1 binding; [2]) of 95%.

For `Cl.N=C(N)SCc1ccc(Cl)cc1Cl` [Compound 3a, (2,4-Dichlorophenyl)methyl Isothiourea Hydrochloride], the “proliferation (S-phase entry, BrdU incorporation)” value (“proliferation” below) [1] was “not inhibited”.

`N=C(N)SCc1ccc(Cl)cc1[N+](=O)[O-]` [Compound 3u, (4-Chloro-2-nitrophenyl)methyl Isothiourea Hydrochloride] gave an inhibition at 10 µM (Rb:Raf-1 binding; [3]) of 25 to 50%.

`N=C(N)SCc1ccc(F)cc1Cl` [Compound 3v, 2-Chloro-4-fluorophenyl)methyl isothiourea Hydrochloride] gave an inhibition at 10 µM (Rb:Raf-1 binding; [3]) of 50 to 100%.

In the case of `N=C(N)SCc1ccc(F)cc1F` [Compound 3w, (2,4-Difluorophenyl)methyl isothiourea Hydrochloride], the inhibition at 10 µM (Rb:Raf-1 binding; [3]) was 50 to 100%.

Work on `Cl.N=C(N)NC(=N)SCc1ccc(F)cc1Cl` [Compound 10a, (2-Chloro-4-fluorophenyl)methyl Amidinoisothiourea Hydrochloride] yielded a melting point of 154 to 156 °C and an inhibition at 20 µM (Rb:Raf-1 binding; [4]) of 50 to 100%.

For `Cl.N=C(N)NC(=N)SCc1ccc(F)cc1F` [Compound 10b, (2,4-Difluorophenyl)methyl Amidinoisothiourea Hydrochloride], the melting point was 144 to 146 °C, the “proliferation” value [1] was “not inhibited” and the inhibition at 20 µM (Rb:Raf-1 binding; [4]) was 50 to 100%.

For `Cl.N=C(N)NC(=N)SCc1ccc(Cl)cc1Cl` [Compound 10c, (2,4-Dichlorophenyl)methyl Amidinoisothiourea Hydrochloride], the melting point was 139 to 142 °C, the “proliferation” value [1] was “not inhibited” and the inhibition at 20 µM (Rb:Raf-1 binding; [4]) was 50 to 100%.

`Cl.N=C(N)NC(=N)SCc1ccc(Cl)cc1[N+](=O)[O-]` [Compound 10d, (2-Nitro-4-chlorophenyl)methyl Amidinoisothiourea Hydrochloride] gave a melting point of 183 to 185 °C and an inhibition at 10 µM (Rb:Raf-1 binding; class symbol +, 10 μM, read-out: Inhibition at 10 μM or 20 μM) of 25 to 50%.

`N#Cc1ccc(CSC(=N)NC(=N)N)cc1` [Compound 10e, (4-Cyanophenyl)methyl Amidinoisothiourea Hydrochloride] showed an inhibition at 20 µM (Rb:Raf-1 binding; [5]) of 22% and an inhibition at 10 µM (Rb:Raf-1 binding; [6]) of 6%.

Molecule `N=C(N)NC(=N)SCc1cc(Cl)ccc1Cl` [Compound 10f, (2,5-Dichlorophenyl)methyl Amidinoisothiourea Hydrochloride] has an inhibition at 20 µM (Rb:Raf-1 binding; [4]) of 50 to 100%.

Molecule `N=C(N)NC(=N)SCc1c(F)cccc1Cl` [Compound 10g, (2-Chloro-6-fluorophenyl)methyl Amidinoisothiourea Hydrochloride] has an inhibition at 20 µM (Rb:Raf-1 binding; [4]) of 50 to 100%.

With `N=C(N)NC(=N)SCc1cc2c(cc1Cl)OCO2` [Compound 10h, (6-Chlorobenzo[d][1,3-dioxol-5-yl)methyl Amidinoisothiourea Hydrochloride] the inhibition at 20 µM (Rb:Raf-1 binding; [4]) was 50 to 100%.

`N=C(N)NC(=N)SCc1ccc(Cl)c(F)c1` [Compound 10i, (4-Chloro-3-fluorophenyl)methyl Amidinoisothiourea Hydrochloride] showed an inhibition at 20 µM (Rb:Raf-1 binding; [5]) of 42% and an inhibition at 10 µM (Rb:Raf-1 binding; [6]) of 6%.

`N=C(N)NC(=N)SCc1c(F)cccc1F` [Compound 10j, (2,6-Difluorophenyl)methyl Amidinoisothiourea Hydrochloride] showed an inhibition at 20 µM (Rb:Raf-1 binding; [4]) of 50 to 100%.

`Cl.N=C(N)NC(=N)SCc1ccc2ccccc2c1` [Compound 11a, (2-Naphthyl)methyl Amidinoisothiourea hydrochloride] gave a melting point of 175 to 177 °C and an inhibition at 10 µM (Rb:Raf-1 binding; read-out: Inhibition at 10 μM) of 50 to 100%.

Molecule `Cl.N=C(N)NC(=N)SCc1ccc2ccccc2c1Br` [Compound 11b, 2-(1-Bromonaphthyl)methyl amidinoisothiourea hydrochloride] has a melting point of 160 to 162 °C and an inhibition at 10 µM (Rb:Raf-1 binding; read-out: Inhibition at 10 μM) of 50 to 100%.
